Data as given in patent publication US12435039B2, “Activators of caspase-8/c-FLIPL dimerization and their use in cancer therapy” (priority 2018, dated 2025).

What was measured:
Jurkat cells = test: Cell viability quantification by ATP assay (CellTiter-Glo), Jurkat cells; type: cell-based, human
Excerpt: (§1) Cell lines—Human cervical cancer HeLa-CD95 cells (Neumann et al., 2010) (CD95-overexpressing cells) and HeLa-CD95-FL cells (CD95/c-FLIPL-overexpressing cells) were maintained in DMEM/Ham's (Merck Millipore, Germany) supplemented with 10% heat-inactivated fetal calf serum, 1% Penicillin-Streptomycin and 0.0001% Puromycin in 5% CO2. Human acute myeloid leukemia MV-4-11 cells and T lymphoma Jurkat cells were maintained in RPMI 1640 (Thermo Fisher Scientific Inc., USA) supplemented with 10% heat-inactivated fetal calf serum and 1% Penicillin-Streptomycin in 5% CO2.
(§2) Cell viability quantification by ATP assay—50 μL of the CellTiter-Glo® solution was added to each well and measurements were performed according to manufacturer's instructions (CellTiter-Glo® Luminescent Cell Viability Assay, Promega, Germany). The luminescence intensity was analyzed by a microplate reader Infinite M200pro (Tecan, Switzerland). The viability of untreated cells was taken as one relative unit (RU). Every condition was performed in duplicate.

HeLa-CD95 cells [1] = test: Cell viability quantification by ATP assay (CellTiter-Glo), HeLa-CD95 cells; type: cell-based, human
Excerpt: as §1, §2

[2] = test system: HeLa-CD95-FL cells (CD95/c-FLIPL-overexpressing); test: Cell viability quantification by ATP assay (CellTiter-Glo), HeLa-CD95-FL cells; type: cell-based, human
Excerpt: as §1, §2

[3] = test system: caspase-3/7 in Jurkat cells; test: Caspase-3/7 activity assay (Caspase-Glo 3/7), Jurkat cells; type: cell-based, human
Protocol: Caspase-3/7 activity assay—Caspase activity was measured by adding 50 μL of the Caspase-Glo®3/7 solution to each well. The luminescence intensity was analyzed by a microplate reader Infinite M200pro (Tecan, Switzerland) according to manufacturer's instructions (Caspase-Glo® 3/7 Assay, Promega, Germany). The caspase activity of non-treated cells was taken as one relative unit (RU). Every condition was performed in duplicate.

[4] = test system: caspase activity in HeLa-CD95 cells; test: Caspase activity in HeLa-CD95 cells (FLIPinB); type: cell-based, human; conditions: FLIPinB with CD95L/TRAIL
MV-4-11 cells = test: Cell viability quantification by ATP assay (CellTiter-Glo), MV-4-11 cells; type: cell-based, human; conditions: FLIPinBγ two hours, then CD95L 1000 ng/mL for 6 hours
Excerpt: as §1, §2

HeLa-CD95 cells [5] = test: Cell death detection using IncuCyte live cell imaging (Cytotox Red); type: cell-based; conditions: 40 μM FLIPinBγ two hours
Protocol: Cell death detection using IncuCyte™ live cell imaging—HeLa-CD95 cells in a 96 well plate (5×10^3 cells/well) were pre-incubated with FLIPinBγ for 2 hours. […] To monitor cell death, cells were treated with IncuCyte™ Cytotox Red Reagent (1:4000) and Caspase-3/7 Green Apoptosis Assay Reagent (1:5000). The cells were imaged every hour by IncuCyte® ZOOM (Essen BioScience, Michigan) with a […] objective for a period of 6 hours. Every condition was performed in triplicate. Data were analyzed by the IncuCyte® ZOOM Software (2016A).

[6] = test system: caspase-3/7 in HeLa-CD95 cells; test: Caspase-3/7 activity by IncuCyte live cell imaging (Caspase-3/7 Green); type: cell-based, human
[7] = test system: procaspase-8, RIPK1 and PARP cleavage in HeLa-CD95 cells; test: Western Blot analysis of total cellular lysates, CD95L-induced cleavage; type: cell-based, human; conditions: 20 μM FLIPinBγ two hours, CD95L 60 ng/mL three hours
Protocol: (§3) Analysis of total cell lysates by Western Blot analysis—The Western Blot analysis of total cellular lysates was performed in accordance to the inventors' previous reports (Schmidt et al., 2015).

c-FLIPL = test: Western Blot time-dependent analysis of c-FLIPL levels; type: cell-based, human; conditions: HeLa-CD95 cells; 20 μM FLIPinBγ up to 16 hours; first hours after administration
Protocol: as §3

caspase-8 at the DISC = test: Caspase-8 activity assay on CD95 DISC-IPs (Caspase-Glo 8); type: biochemical, human; conditions: CD95 DISC-IPs from HeLa-CD95 cells; 20 μM FLIPinBγ two hours, CD95L 60 ng/mL three hours
Protocol: CD95 DISC-IP—The CD95 DISC-IP (Immunoprecipitation) from 5×10^6 HeLa-CD95 cells were done as described before (Pietkiewicz et al., 2015). In addition, DISC-IPs were washed four times with PBS, which was followed by Western Blot analysis or caspase-8 activity assays.
Caspase-8 activity assay—Each of protein A beads samples with CD95 DISC-IPs were resuspended in 95 μL of CHAPS-Buffer (50 mM HEPES pH=7.2; 50 mM NaCl; 10 mM EDTA; 5% Glycerin; 10 mM DTT, 0.1% CHAPS) and transferred into a 96-well plate. Caspase-8 activity was measured according to manufacturer's instructions (Caspase-Glo® 8 Assay, Promega, Germany). Every condition was performed in duplicate. The luminescence intensity was analyzed by a microplate reader Infinite M200pro (Tecan, Switzerland).

## O=C(NCCOC(=O)c1cccc(S(=O)(=O)NCc2ccccc2)c1)c1ccc(-c2ccccc2)cc1 [FLIPinB, 2-[(4-phenylbenozyl)amino]ethyl 3-(benzylsulfamoyl)benzoate]
Jurkat cells
  initial experimental screening of FLIPins: viability upon FLIPin/CD95L vs CD95L-only: showed the best properties in the initial selection
Jurkat cells; FLIPinB plus CD95L vs CD95L only
  CD95L-induced loss of cell viability: enhanced
Jurkat cells; FLIPinB plus TRAIL
  TRAIL-induced loss of cell viability: enhanced
HeLa-CD95 cells [1]; FLIPinB plus CD95L
  CD95L-induced loss of cell viability: enhanced
HeLa-CD95 cells [1]; FLIPinB plus TRAIL
  TRAIL-induced loss of cell viability: enhanced
[2]; HeLa-CD95-FL cells, FLIPinB plus CD95L
  resistance of HeLa-CD95-FL cells to CD95L: allowed to overcome the resistance
[3]; FLIPinB with CD95L/TRAIL
  caspase activity: increased
[4]
  caspase activity: increased

## O=C(NCCOC(=O)c1cccc(S(=O)(=O)NCc2cccnc2)c1)c1ccc(-c2ccncc2)cc1 [FLIPinBγ, 2-[[4-(4-pyridyl)benzoyl]amino]ethyl 3-(3-pyridylmethylsulfamoyl)benzoate]
Jurkat cells; FLIPinBγ two hours, then CD95L 60 ng/mL for 6 hours
  CD95L-induced loss of cell viability: efficiently promoted a loss of cell viability in a dose- and time-dependent manner
HeLa-CD95 cells [1]; FLIPinBγ two hours, then CD95L 60 ng/mL for 22 hours
  CD95L-induced loss of cell viability: efficiently promoted a loss of cell viability in a dose- and time-dependent manner
[2]; HeLa-CD95-FL cells overexpressing c-FLIPL
  relative efficiency across cell lines: most efficient
[2]; HeLa-CD95-FL cells, FLIPinBγ two hours, then CD95L 238 ng/mL for 6 hours
  CD95L-induced loss of cell viability: efficiently promoted a loss of cell viability in a dose- and time-dependent manner
MV-4-11 cells
  CD95L-induced loss of cell viability: efficiently promoted a loss of cell viability in a dose- and time-dependent manner
HeLa-CD95 cells [5]; CD95L 50 ng/mL, in the first hours
  CD95L-induced cell death (Cytotox Red live cell imaging): enhanced
HeLa-CD95 cells [5]; TRAIL 100 ng/mL, most prominent in the first hours
  TRAIL-induced cell death (Cytotox Red live cell imaging): enhanced
[3]; 20 μM FLIPinBγ two hours, CD95L 60 ng/mL four hours
  caspase-3/7 activity, FLIPinBγ/CD95L co-treatment: increase
[3]; 20 μM FLIPinBγ two hours, TRAIL 100 ng/mL three hours
  caspase-3/7 activity, FLIPinBγ/TRAIL co-treatment: increase
[6]
  caspase-3/7 activity in single cells, FLIPinBγ/TRAIL co-administration: increase
[6]; 40 μM FLIPinBγ two hours, CD95L 50 ng/mL
  caspase-3/7 activity in single cells, FLIPinBγ/CD95L co-administration: increase
[7]
  CD95L-induced RIPK1 cleavage: slight increase
  CD95L-induced cleavage of PARP: increases
  CD95L-induced cleavage of procaspase-8 to p18: increases
c-FLIPL
  influence on c-FLIPL expression: no influence
caspase-8 at the DISC
  caspase-8 activity at the DISC: increased
